Laboratory results reported in patent publication US20240197695A1, “COMPOUND FOR PREVENTION OR TREATMENT OF KIDNEY DISEASE” (ONCOCROSS CO.,LTD, priority 2021, published 2024).
Marks after values point to notes of the source that are not given here.

Tests used:
Type in all cases: in vivo, mice (C57BL/6)
[1] = test system: diabetic nephrosis animal models; assay: Histopathological change (H&E) in liver, kidney, pancreas; settings: G6/G7, 50 mg/kg oral; count in group of 10 animals
Protocol: (§1) STZ (Sigma-aldrich, S0130, 40 mg/kg b.w., in 0.1 M citrate buffer pH 4.5) was intraperitoneally administered to 9-week-old male mice (C57BL/6) once/1 day for 5 days to perform a first disease induction. After 7 weeks of the first induction, a second induction was performed using the same method as the first induction. For 5 days of an STZ administration period for the first induction, 10% sucrose was administered as drinking water. In addition, after 14 days of the second administration, blood glucose levels were confirmed to confirm the induction rate, and the induced animals were separated into groups. Experimental substances (R)-4-{(R)-1-[7-(3,4,5-trimethoxy-phenyl)-[1,6] naphthyridin-5-yloxy]-ethyl}pyrrolidin-2-one (BI-1002494) and cromolyn (OC-101) were administered orally into the stomach at 10 mL/kg using an administration syringe (sonde) before 16:00 daily for 12 weeks at a frequency of 7 days/week at doses shown in Table 1 below, and dexamethasone was orally administered as a positive control substance.
At the end of the observation period, the mice in each group of Example 1 were confirmed to be dead, and the liver, kidney, and pancreas were extracted and fixed with 10% neutral buffered formalin (NBF) in at least 20 times the tissue volume. The fixed tissue was sectioned to a thickness of approximately 4 mm and then produced into a paraffin block through general tissue processing and embedding processes. Thereafter, the tissue was sectioned to a thickness of 4 μm using a rotary microtome, and then H&E staining was performed, and histopathological changes were observed.

[2] = Drinking water intake of mice in diabetic nephrosis model; design: unit not given here; settings: 50 mg/kg/day oral
Protocol: as §1

[3] = Feed intake of mice in diabetic nephrosis model; design: Feed intake, Mean: unit not given here; settings: 50 mg/kg/day oral
Protocol: as §1

[4] = test system: diabetic nephrosis animal models; assay: Blood insulin (Mouse Insulin ELISA KIT) and HOMA-IR
Protocol: as §1
(§2) After the observation period for mice of each group in Example 1 was terminated, all surviving animals were fasted in the same manner as when measuring blood glucose levels, and then anesthetized by inhaling isoflurane, and blood was collected from the abdominal vena cava through laparotomy. After the blood collection was completed, the veins and arteries were cut under anesthesia and exsanguinated. The collected blood was left at room temperature for 30 minutes or more and then centrifuged at 3,000 rpm for 20 minutes. Thereafter, glucose, Blood urea nitrogen (BUN), and creatinine were analyzed using an automated blood biochemistry analyzer (Hitachi 3100, Hitachi Co. Ltd., Japan). Indoxyl sulfate (a substance that was mainly produced in the intestines to cause renal injury, and a substance that caused end-stage renal failure by advancing renal function damage in patients with renal failure during hemodialysis) was analyzed using LC MS/MS. In addition, blood insulin was analyzed according to a method represented by a commercial Mouse Insulin ELISA KIT (#AKRIN-011T, Sibayagi Co. Ltd., Japan).

[5] = Body weights of mice in diabetic nephrosis model; settings: 50 mg/kg/day oral
Protocol: as §1

[6] = test system: diabetic nephrosis animal models
Protocol: as §1, §2

[7] = test system: diabetic nephrosis animal models; assay: Changes in blood glucose levels (tail vein, blood glucose level meter); settings: 50 mg/kg/day oral
Protocol: as §1
Before disease induction, excluding week 9 of administration of experimental substances to mice in each group of Example 1 above, after 2 weeks after the first induction (based on a first administration date), and after 6 weeks and 2 weeks of the second induction (based on the first administration date), blood was collected from the tail vein and blood glucose levels were measured using a blood glucose level meter (Accu-Check, Roche), and fasting was performed for 4 hours from 9:30 a.m. to 1:30.

[8] = test system: diabetic nephrosis animal models; assay: Blood indoxyl sulfate by LC MS/MS; settings: 50 mg/kg/day oral, after observation period, fasted
Protocol: as §1, §2

[9] = 50 mg/kg/day oral, after observation period, fasted

For `O=C(O)c1cc(=O)c2c(OCC(O)COc3cccc4oc(C(=O)O)cc(=O)c34)cccc2o1` [OC-101, cromolyn, reference compound], the “Kidney: Medullar apoptosis” value [1] was 0, the “Kidney: Medullar mineralization” value [1] was 1 and the “Kidney: NHL” value [1] was 8. For the same compound, the “Kidney: bowman's capsule hyperplasia” value [1] was 1, the “Kidney: pappillary mineralization” value [1] was 0 and the “Liver: Apoptosis” value [1] was 2. The “Liver: Cytoplasmic glycogen” value [1] was 0, the “Liver: Eosinophlic focus of cellular alteration” value [1] was 1 and the “Liver: Mononuclear cell infiltrate” value [1] was 3. For the same compound, the “Liver: NHL” value [1] was 5, the “Pancrease: Apoptosis” value [1] was 0 and the “Pancrease: NHL” value [1] was 6. The “Pancrease: islet degeneration” value [1] was 2, the “Pancrease: islet hypertrophy” value [1] was 2 and the “Pancrease: islet, mononuclear cell infillitrate” value [1] was 1. For the same compound, the “Drinking water intake, Mean” value ([2]; week 0) was 6.78, the “Drinking water intake, Mean” value ([2]; week 1) was 8.11 and the “Drinking water intake, Mean” value ([2]; week 2) was 7.68. For the same compound, the “Drinking water intake, Mean” value ([2]; week 3) was 6.99, the “Drinking water intake, Mean” value ([2]; week 4) was 7.23 and the “Drinking water intake, Mean” value ([2]; week 5) was 6.78. For the same compound, the “Drinking water intake, Mean” value ([2]; week 6) was 7.80, the “Drinking water intake, Mean” value ([2]; week 7) was 7.06 and the “Drinking water intake, Mean” value ([2]; week 8) was 7.17. The “Drinking water intake, Mean” value ([2]; week 9) was 7.09, the “Drinking water intake, Mean” value ([2]; week 10) was 6.76 and the “Feed intake, Mean” value ([3]; week 0) was 6.23. The “Feed intake, Mean” value ([3]; week 1) was 5.98, the “Feed intake, Mean” value ([3]; week 2) was 6.35 and the “Feed intake, Mean” value ([3]; week 3) was 5.47. For the same compound, the “Feed intake, Mean” value ([3]; week 4) was 4.28, the “Feed intake, Mean” value ([3]; week 5) was 4.51 and the “Feed intake, Mean” value ([3]; week 6) was 4.29. The “Feed intake, Mean” value ([3]; week 7) was 4.41, the “Feed intake, Mean” value ([3]; week 8) was 4.37 and the “Feed intake, Mean” value ([3]; week 9) was 4.51. The “Feed intake, Mean” value ([3]; week 10) was 4.28, the “HOMA-IR compared to disease control group” value ([4]; 50 mg/kg administered group) was “decreased statistically significantly” and the “HOMA-IR, Mean” value [4, 9] was 8.8^#. For the same compound, the “Insulin, Mean” value [4, 9] was 0.5 ng/mL, the Body weight, Mean ([5]; week 0) was 23.9 g and the Body weight, Mean ([5]; week 1) was 23.4 g. For the same compound, the Body weight, Mean ([5]; week 2) was 23.5 g, the Body weight, Mean ([5]; week 3) was 23.3 g and the Body weight, Mean ([5]; week 4) was 23.5 g. The Body weight, Mean ([5]; week 5) was 23.4 g, the Body weight, Mean ([5]; week 6) was 23.5 g and the Body weight, Mean ([5]; week 7) was 23.4 g. The Body weight, Mean ([5]; week 8) was 23.2 g, the Body weight, Mean ([5]; week 10) was 23 g and the “GLU compared to disease control group” value ([6]; 50 mg/kg administered group) was “decreased statistically significantly”. For the same compound, the “CRE, Mean” value [6, 9] was 0.1 mg/dL, the “GLU, Mean” value [6, 9] was 282.6^# mg/dL and the “T-CHO, Mean” value [6, 9] was 139.3 mg/dL. The “Blood glucose level, Mean” value ([7]; week 0, 4 h fasting, in mg/dL (unit assumed)) was 300.9, the “Blood glucose level, Mean” value ([7]; week 2, 4 h fasting, in mg/dL (unit assumed)) was 336.6 and the “Blood glucose level, Mean” value ([7]; week 4, 4 h fasting) was 271.1^#. The “Blood glucose level, Mean” value ([7]; week 6, 4 h fasting) was 295.5^#, the “Blood glucose level, Mean” value ([7]; week 8, 4 h fasting) was 259.9^# and the “Blood glucose level, Mean” value ([7]; week 10, 4 h fasting) was 247.8^#. The “Indoxyl sulfate, Mean” value [8] was 2.0 µg/mL.
